Results: PubChem BioAssay AID1963853 (Molecular Pharmacology Branch, DTP, NCI, 2024)

System: 266295-075-R-J1-PDC spheroid viability
Assay: Anticancer human tumor 266295-075-R-J1-PDC patient-derived head and neck squamous carcinoma cell line growth inhibition [POLQ]
Settings: spheroids with HUVEC and MSC; for IC50: curve of first compound; for viability, T/C: stronger effect = lower value
Method in brief: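 PDC + HUVEC + MSC complex spheroids; POLQ inhibitors ± partner drugs; top conc. at/near clinical Cmax, else 10 microM (SN-38 1 microM), half-log dilutions; 37 degrees C, 5% CO2.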

[1] = second compound 0.0316 µM, first compound 0.00316 µM
[2] = second compound 0.0316 µM, first compound 0.01 µM
[3] = second compound 0.0316 µM, first compound 0.0316 µM
[4] = second compound 0.0316 µM, first compound 0.1 µM
[5] = second compound 0.1 µM, first compound 0.00316 µM
[6] = second compound 0.1 µM, first compound 0.01 µM
[7] = second compound 0.1 µM, first compound 0.0316 µM
[8] = second compound 0.1 µM, first compound 0.1 µM
[9] = second compound 0.316 µM, first compound 0.00316 µM
[10] = second compound 0.316 µM, first compound 0.01 µM
[11] = second compound 0.316 µM, first compound 0.0316 µM
[12] = second compound 0.316 µM, first compound 0.1 µM
[13] = second compound 1 µM, first compound 0.00316 µM
[14] = second compound 1 µM, first compound 0.01 µM
[15] = second compound 1 µM, first compound 0.0316 µM
[16] = second compound 1 µM, first compound 0.1 µM
[17] = second compound 3.16 µM, first compound 0.00316 µM
[18] = second compound 3.16 µM, first compound 0.01 µM
[19] = second compound 3.16 µM, first compound 0.0316 µM
[20] = second compound 3.16 µM, first compound 0.1 µM
[21] = second compound 10 µM, first compound 0.00316 µM
[22] = second compound 10 µM, first compound 0.01 µM
[23] = second compound 10 µM, first compound 0.0316 µM
[24] = second compound 10 µM, first compound 0.1 µM
[25] = second compound 0.0316 µM, first compound 0.316 µM
[26] = second compound 0.0316 µM, first compound 1 µM
[27] = second compound 0.1 µM, first compound 0.316 µM
[28] = second compound 0.1 µM, first compound 1 µM
[29] = second compound 0.316 µM, first compound 0.316 µM
[30] = second compound 0.316 µM, first compound 1 µM
[31] = second compound 1 µM, first compound 0.316 µM
[32] = second compound 1 µM, first compound 1 µM
[33] = second compound 3.16 µM, first compound 0.316 µM
[34] = second compound 3.16 µM, first compound 1 µM
[35] = second compound 10 µM, first compound 0.316 µM
[36] = second compound 10 µM, first compound 1 µM
[37] = second compound 0.0316 µM, first compound 3.16 µM
[38] = second compound 0.0316 µM, first compound 10 µM
[39] = second compound 0.1 µM, first compound 3.16 µM
[40] = second compound 0.1 µM, first compound 10 µM
[41] = second compound 0.316 µM, first compound 3.16 µM
[42] = second compound 0.316 µM, first compound 10 µM
[43] = second compound 1 µM, first compound 3.16 µM
[44] = second compound 1 µM, first compound 10 µM
[45] = second compound 3.16 µM, first compound 3.16 µM
[46] = second compound 3.16 µM, first compound 10 µM
[47] = second compound 10 µM, first compound 3.16 µM
[48] = second compound 10 µM, first compound 10 µM
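Also: spheroids exposed to compounds for seven days before readout.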

CC[C@@]1(O)C(=O)OCc2c1cc1n(c2=O)Cc2cc3c(CN(C)C)c(O)ccc3nc2-1 + Nc1ccc(C#CCN(C(=O)Cc2ncc(C(F)(F)F)cc2C(F)(F)F)c2ccc(F)cc2)nn1
IC50 (second compound 0.0316 µM): > 0.1 µM
IC50 (second compound 0.1 µM): > 0.1 µM
IC50 (second compound 0.316 µM): > 0.1 µM
IC50 (second compound 1 µM): > 0.1 µM
IC50 (second compound 3.16 µM): > 0.1 µM
IC50 (second compound 10 µM): > 0.1 µM
viability, T/C (second compound 0.0316 µM, first compound 0.000316 µM): 98.9%
viability, T/C (second compound 0.0316 µM, first compound 0.001 µM): 105%
viability, T/C [1]: 105%
viability, T/C [2]: 95.1%
viability, T/C [3]: 84%
viability, T/C [4]: 91.8%
viability, T/C (second compound 0.1 µM, first compound 0.000316 µM): 105%
viability, T/C (second compound 0.1 µM, first compound 0.001 µM): 110%
viability, T/C [5]: 97.5%
viability, T/C [6]: 92.1%
viability, T/C [7]: 116%
viability, T/C [8]: 114%
viability, T/C (second compound 0.316 µM, first compound 0.000316 µM): 101%
viability, T/C (second compound 0.316 µM, first compound 0.001 µM): 93.8%
viability, T/C [9]: 103%
viability, T/C [10]: 107%
viability, T/C [11]: 116%
viability, T/C [12]: 69.2%
viability, T/C (second compound 1 µM, first compound 0.000316 µM): 91.2%
viability, T/C (second compound 1 µM, first compound 0.001 µM): 97.2%
viability, T/C [13]: 75.7%
viability, T/C [14]: 102%
viability, T/C [15]: 98.7%
viability, T/C [16]: 74.3%
viability, T/C (second compound 3.16 µM, first compound 0.000316 µM): 97.3%
viability, T/C (second compound 3.16 µM, first compound 0.001 µM): 101%
viability, T/C [17]: 82.5%
viability, T/C [18]: 83.2%
viability, T/C [19]: 99.5%
viability, T/C [20]: 88.6%
viability, T/C (second compound 10 µM, first compound 0.000316 µM): 97.2%
viability, T/C (second compound 10 µM, first compound 0.001 µM): 92.2%
viability, T/C [21]: 119%
viability, T/C [22]: 85.7%
viability, T/C [23]: 94.4%
viability, T/C [24]: 87.8%

COc1cccc(OCCCN)c1-c1cc(Nc2cnc(C#N)cn2)n[nH]1 + Nc1ccc(C#CCN(C(=O)Cc2ncc(C(F)(F)F)cc2C(F)(F)F)c2ccc(F)cc2)nn1
IC50 (second compound 0.0316 µM): > 1 µM
IC50 (second compound 0.1 µM): > 1 µM
IC50 (second compound 0.316 µM): > 1 µM
IC50 (second compound 1 µM): > 1 µM
IC50 (second compound 3.16 µM): > 1 µM
IC50 (second compound 10 µM): > 1 µM
viability, T/C [1]: 89.6%
viability, T/C [2]: 110%
viability, T/C [3]: 81.2%
viability, T/C [4]: 77.5%
viability, T/C [25]: 64.5%
viability, T/C [26]: 64.4%
viability, T/C [5]: 91.6%
viability, T/C [6]: 106%
viability, T/C [7]: 84.1%
viability, T/C [8]: 69.3%
viability, T/C [27]: 72%
viability, T/C [28]: 73.5%
viability, T/C [9]: 106%
viability, T/C [10]: 91.9%
viability, T/C [11]: 73.8%
viability, T/C [12]: 76.1%
viability, T/C [29]: 60.4%
viability, T/C [30]: 71.2%
viability, T/C [13]: 99.2%
viability, T/C [14]: 95.9%
viability, T/C [15]: 74.5%
viability, T/C [16]: 66.5%
viability, T/C [31]: 61.9%
viability, T/C [32]: 60.8%
viability, T/C [17]: 120%
viability, T/C [18]: 101%
viability, T/C [19]: 73.2%
viability, T/C [20]: 72.8%
viability, T/C [33]: 70.2%
viability, T/C [34]: 61%
viability, T/C [21]: 94.6%
viability, T/C [22]: 95%
viability, T/C [23]: 87.8%
viability, T/C [24]: 67.3%
viability, T/C [35]: 62.1%
viability, T/C [36]: 68.9%

O=C(Nc1ccc(O)c(NS(=O)(=O)c2ccc(F)cc2)c1)c1ccc(-c2ccccc2)cc1 + Cc1cccc(N(C)C(=O)C2C(O)CCN2c2nc(C)cc(C(F)(F)F)c2C#N)c1
IC50 (second compound 0.0316 µM): > 10 µM
IC50 (second compound 0.1 µM): > 10 µM
IC50 (second compound 0.316 µM): > 10 µM
IC50 (second compound 1 µM): > 10 µM
IC50 (second compound 3.16 µM): > 10 µM
IC50 (second compound 10 µM): > 10 µM
viability, T/C [3]: 96.1%
viability, T/C [4]: 104%
viability, T/C [25]: 125%
viability, T/C [26]: 139%
viability, T/C [37]: 144%
viability, T/C [38]: 103%
viability, T/C [7]: 118%
viability, T/C [8]: 104%
viability, T/C [27]: 124%
viability, T/C [28]: 110%
viability, T/C [39]: 123%
viability, T/C [40]: 97.7%
viability, T/C [11]: 107%
viability, T/C [12]: 87.6%
viability, T/C [29]: 76.6%
viability, T/C [30]: 95.2%
viability, T/C [41]: 146%
viability, T/C [42]: 88.3%
viability, T/C [15]: 102%
viability, T/C [16]: 97%
viability, T/C [31]: 103%
viability, T/C [32]: 129%
viability, T/C [43]: 114%
viability, T/C [44]: 85.5%
viability, T/C [19]: 136%
viability, T/C [20]: 94.5%
viability, T/C [33]: 110%
viability, T/C [34]: 136%
viability, T/C [45]: 127%
viability, T/C [46]: 103%
viability, T/C [23]: 108%
viability, T/C [24]: 113%
viability, T/C [35]: 113%
viability, T/C [36]: 108%
viability, T/C [47]: 142%
viability, T/C [48]: 97.2%

COc1cccc(OCCCN)c1-c1cc(Nc2cnc(C#N)cn2)n[nH]1 + COC1C(OC(N)=O)C(O)C(Oc2ccc3c(O)c(NC(=O)c4ccc(O)c(CC=C(C)C)c4)c(=O)oc3c2C)OC1(C)C
IC50 (second compound 0.0316 µM): > 1 µM
IC50 (second compound 0.1 µM): > 1 µM
IC50 (second compound 0.316 µM): > 1 µM
IC50 (second compound 1 µM): > 1 µM
IC50 (second compound 3.16 µM): > 1 µM
IC50 (second compound 10 µM): > 1 µM
viability, T/C [1]: 87.7%
viability, T/C [2]: 81.7%
viability, T/C [3]: 71.1%
viability, T/C [4]: 64.2%
viability, T/C [25]: 67.1%
viability, T/C [26]: 71.7%
viability, T/C [5]: 109%
viability, T/C [6]: 89.8%
viability, T/C [7]: 84%
viability, T/C [8]: 68.7%
viability, T/C [27]: 65.6%
viability, T/C [28]: 75.6%
viability, T/C [9]: 88.8%
viability, T/C [10]: 85.4%
viability, T/C [11]: 78.6%
viability, T/C [12]: 70.6%
viability, T/C [29]: 81.1%
viability, T/C [30]: 70%
viability, T/C [13]: 96.7%
viability, T/C [14]: 89.8%
viability, T/C [15]: 76.4%
viability, T/C [16]: 66.1%
viability, T/C [31]: 72%
viability, T/C [32]: 69.1%
viability, T/C [17]: 92.3%
viability, T/C [18]: 96.7%
viability, T/C [19]: 78.6%
viability, T/C [20]: 74.3%
viability, T/C [33]: 78.3%
viability, T/C [34]: 76.1%
viability, T/C [21]: 87.6%
viability, T/C [22]: 90.9%
viability, T/C [23]: 70.4%
viability, T/C [24]: 65.1%
viability, T/C [35]: 66.5%
viability, T/C [36]: 69.6%

CC1COCCN1c1cc(-c2ccnn2C)c2ccnc(-c3ccn[nH]3)c2n1 (stereo not given) + COC1C(OC(N)=O)C(O)C(Oc2ccc3c(O)c(NC(=O)c4ccc(O)c(CC=C(C)C)c4)c(=O)oc3c2C)OC1(C)C
IC50 (second compound 0.0316 µM): 4.35 µM
IC50 (second compound 0.1 µM): 2.01 µM
IC50 (second compound 0.316 µM): 1.91 µM
IC50 (second compound 1 µM): 3.89 µM
IC50 (second compound 3.16 µM): 4.51 µM
IC50 (second compound 10 µM): 1.97 µM
viability, T/C [3]: 91.2%
viability, T/C [4]: 84.7%
viability, T/C [25]: 71.2%
viability, T/C [26]: 63.3%
viability, T/C [37]: 54.3%
viability, T/C [38]: 42.1%
viability, T/C [7]: 91.7%
viability, T/C [8]: 92.2%
viability, T/C [27]: 65.8%
viability, T/C [28]: 58%
viability, T/C [39]: 48.4%
viability, T/C [40]: 41.6%
viability, T/C [11]: 89.9%
viability, T/C [12]: 90.6%
viability, T/C [29]: 63.7%
viability, T/C [30]: 61.3%
viability, T/C [41]: 43.6%
viability, T/C [42]: 38.7%
viability, T/C [15]: 110%
viability, T/C [16]: 91.2%
viability, T/C [31]: 79.1%
viability, T/C [32]: 62.5%
viability, T/C [43]: 53.3%
viability, T/C [44]: 41%
viability, T/C [19]: 98.2%
viability, T/C [20]: 82.8%
viability, T/C [33]: 77.2%
viability, T/C [34]: 63.9%
viability, T/C [45]: 53.9%
viability, T/C [46]: 41.9%
viability, T/C [23]: 87.6%
viability, T/C [24]: 94.7%
viability, T/C [35]: 75.7%
viability, T/C [36]: 57.1%
viability, T/C [47]: 47.8%
viability, T/C [48]: 38.1%
